Assay results taken from PubChem BioAssay AID1963827 (Molecular Pharmacology Branch, DTP, NCI, 2024).
Where “and” joins values, the source holds several entries; their conditions need not be identical. Identical values can stand only once.

Tested on: 994946-033-R-J1-PDC complex spheroid viability
Experiment: Anticancer human tumor 994946-033-R-J1-PDC patient-derived melanoma cell line growth inhibition [POLQ]
Details: for viability, T/C: stronger effect = lower value
Protocol: Multicellular complex tumor spheroid response to Polymerase (POL) inhibitors (novobiocin, ART-558, RP6685) in combination with a variety of drugs and investigational agents in selected tumor cell lines
The POL inhibitors (novobiocin, ART-558, and RP6685) were evaluated both individually and in combination with standard of care and investigational anticancer small molecules within a complex spheroid model of solid tumors. . Complex spheroids include a stromal component modeled by human endothelial cells (HUVEC) and fibroblasts modeled by human mesenchymal stem cells (MSCs). The concentration ranges selected for each drug and investigational agent were based upon clinically achievable concentrations if the clinical Cmax of the agent was known.
Compounds. The drugs and investigational agents: novobiocin (NSC847541), ART-558 (NSC835418), RP-6685 (NSC848927), peposertib (NSC802822), ceralasertib (NSC780249), elimusertib (NSC800525), camonsertib (NSC841442), AZD-1390 (NSC803789), olaparib (NSC753686), talazoparib (NSC767125), rucaparib (NSC756644), sotorasib (NSC818433), MRTX-1133 (NSC836407), SN-38 (NSC673596), topotecan (NSC609699), epotoside (NSC141540), doxorubicin (NSC123127), gemcitabine (NSC613327), 5-fluorouracil (NSC19893), paclitaxel (NSC125973), vemurafenib (NSC761431), MSA-2 (NSC828583), SN-011 (NSC837082), adavosertib (NSC754352), prexasertib (NSC758257), carboplatin (NSC241240) and oxaliplatin (NSC266046), were obtained from the National Cancer Institute (NCI) Developmental Therapeutics Program Chemical Repository (21). The FDA-approved anticancer drug set is available from the Developmental Therapeutics Program at https://dtp.cancer.gov/organization/dscb/obtaining/. […] The stock solutions were prepared in dimethyl sulfoxide (DMSO, Sigma-Aldrich, St. Louis, MO, cat. D2650), except for the platinum compounds which were prepared in saline (Quality Biological, Gaithersburg, MD, cat. 114-055-101), at 800-fold the tested concentration and stored at -70 degrees C prior to their use. All drugs and investigational agents were tested over a range starting from a high concentration at or near the clinical Cmax and decreasing in half-log increments. If the clinical Cmax for an agent had not been determined, the highest concentration tested was 10 microM, except for SN-38, which was tested at a high concentration of 1 microM.
Cell Culture. All cells were maintained in an incubator at 37 degrees C and 5% CO2 with 95% humidity. The PDC lines were cultured according to standard operating procedures established by the NCI PDMR (https://pdmr.cancer.gov). Table 3 of the manuscript, lists the cell lines along with the number of the three cell types plated to form the mct-spheroids and media for tumor cell growth. After thawing, all PDC lines, except 997537-175-T-J1-PDC and 415267-285-R-J2-PDC, were cultured in Matrigel-coated flasks prepared with a working solution of 1X Ham's F-12 nutrient mix, without supplementation (Thermo Fisher Scientific, cat. 11765054), 100 U/mL penicillin-streptomycin (Thermo Fisher Scientific, cat. 15140122), and 2.5% Matrigel (Corning Inc., Corning, NY, cat. 354248) for the first three passages. The two PDC lines 997537-175-T-J1-PDC and 415267-285-R-J2-PDC were cultured on uncoated flasks. The 857933-349-R-J2-PDC line was cultured in 6C/Colon 1B media containing advanced DMEM/F-12 (Thermo Fisher Scientific, cat. 12634028), 10 mM HEPES (Thermo Fisher Scientific, cat. 15630080), 1X GlutaMAX supplement (Thermo Fisher Scientific, cat. 35050061), 0.1 mg/mL primocin (InvivoGen, San Diego, CA, cat. ant-pm-2), 10% defined fetal bovine serum, heat inactivated (HyClone Laboratories Inc., Logan, UT, cat. SH30070.03HI), 50% L-WRN conditioned media (ATCC, cat. CRL-3276), 1.25 mM N-Acetyl-L-cysteine (Sigma-Aldrich, cat. A9165), 10 mM nicotinamide (Sigma-Aldrich, cat. N0636), 1X B-27 supplement (Thermo Fisher Scientific, cat. 17504044), 1X N-2 supplement (Thermo Fisher Scientific, cat. […]
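Also: spheroids exposed to drugs for 7 days.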
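For viability, T/C in this document: 100% = DMSO vehicle treated spheroids.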

CC[C@@]1(O)C(=O)OCc2c1cc1n(c2=O)Cc2cc3c(CN(C)C)c(O)ccc3nc2-1 + Nc1ccc(C#CCN(C(=O)Cc2ncc(C(F)(F)F)cc2C(F)(F)F)c2ccc(F)cc2)nn1
IC50 (curve of first compound, second compound 0.0316 µM): 26.5 nM | IC50 (curve of first compound, second compound 0.1 µM): 29.4 nM | IC50 (curve of first compound, second compound 0.316 µM): 21.4 nM | IC50 (curve of first compound, second compound 1 µM): 22.5 nM | IC50 (curve of first compound, second compound 3.16 µM): 21.5 nM | IC50 (curve of first compound, second compound 10 µM): 30.3 nM | viability, T/C (second compound 0.0316 µM, first compound 0.000316 µM): 95.3% | viability, T/C (second compound 0.0316 µM, first compound 0.001 µM): 94.5% | viability, T/C (second compound 0.0316 µM, first compound 0.00316 µM): 99.9% | viability, T/C (second compound 0.0316 µM, first compound 0.01 µM): 79% | viability, T/C (second compound 0.0316 µM, first compound 0.0316 µM): 45% | viability, T/C (second compound 0.0316 µM, first compound 0.1 µM): 9.6% | viability, T/C (second compound 0.1 µM, first compound 0.000316 µM): 91.7% | viability, T/C (second compound 0.1 µM, first compound 0.001 µM): 113% | viability, T/C (second compound 0.1 µM, first compound 0.00316 µM): 78.2% | viability, T/C (second compound 0.1 µM, first compound 0.01 µM): 98.9% | viability, T/C (second compound 0.1 µM, first compound 0.0316 µM): 46.9% | viability, T/C (second compound 0.1 µM, first compound 0.1 µM): 15.4% | viability, T/C (second compound 0.316 µM, first compound 0.000316 µM): 101% | viability, T/C (second compound 0.316 µM, first compound 0.001 µM): 109% | viability, T/C (second compound 0.316 µM, first compound 0.00316 µM): 89.9% | viability, T/C (second compound 0.316 µM, first compound 0.01 µM): 79.5% | viability, T/C (second compound 0.316 µM, first compound 0.0316 µM): 34.6% | viability, T/C (second compound 0.316 µM, first compound 0.1 µM): 17.1% | viability, T/C (second compound 1 µM, first compound 0.000316 µM): 130% | viability, T/C (second compound 1 µM, first compound 0.001 µM): 90.3% | viability, T/C (second compound 1 µM, first compound 0.00316 µM): 106% | viability, T/C (second compound 1 µM, first compound 0.01 µM): 87.8% | viability, T/C (second compound 1 µM, first compound 0.0316 µM): 33.7% | viability, T/C (second compound 1 µM, first compound 0.1 µM): 11.7% | viability, T/C (second compound 3.16 µM, first compound 0.000316 µM): 92% | viability, T/C (second compound 3.16 µM, first compound 0.001 µM): 119% | viability, T/C (second compound 3.16 µM, first compound 0.00316 µM): 96.8% | viability, T/C (second compound 3.16 µM, first compound 0.01 µM): 86.8% | viability, T/C (second compound 3.16 µM, first compound 0.0316 µM): 31.4% | viability, T/C (second compound 3.16 µM, first compound 0.1 µM): 13.7% | viability, T/C (second compound 10 µM, first compound 0.000316 µM): 100% | viability, T/C (second compound 10 µM, first compound 0.001 µM): 113% | viability, T/C (second compound 10 µM, first compound 0.00316 µM): 98.5% | viability, T/C (second compound 10 µM, first compound 0.01 µM): 110% | viability, T/C (second compound 10 µM, first compound 0.0316 µM): 47.7% | viability, T/C (second compound 10 µM, first compound 0.1 µM): 14.4%

O=C(c1cc(Cc2n[nH]c(=O)c3ccccc23)ccc1F)N1CCN(C(=O)C2CC2)CC1
viability, T/C (compound 0.0316 µM): 98.7% and 77.9% and 85.7% | viability, T/C (compound 0.1 µM): 94% and 103% and 89.2% | viability, T/C (compound 0.316 µM): 101% and 90.9% and 80.3% | viability, T/C (compound 1 µM): 91.5% and 88.8% and 54.5% | viability, T/C (compound 3.16 µM): 63.4% and 55.2% and 62.6% | viability, T/C (compound 10 µM): 32.4% and 33.3% and 36.9% | IC50 (curve of compound): 5190 nM and 4150 nM and 4320 nM

O=C(Nc1ccc(O)c(NS(=O)(=O)c2ccc(F)cc2)c1)c1ccc(-c2ccccc2)cc1
viability, T/C (compound 0.0316 µM): 68.8% and 116% and 90.9% | viability, T/C (compound 0.1 µM): 87.8% and 77.9% and 78.2% | viability, T/C (compound 0.316 µM): 83.3% and 91.7% and 96% | viability, T/C (compound 1 µM): 80.3% and 100% and 96.6% | viability, T/C (compound 3.16 µM): 89.9% and 85.7% and 90.8% | viability, T/C (compound 10 µM): 39% and 46.8% and 25.6% | IC50 (curve of compound): 7460 nM and 9190 nM and 6490 nM

Nc1ccn(C2OC(CO)C(O)C2(F)F)c(=O)n1 (configuration not stated)
viability, T/C (compound 0.0316 µM): 26% and 34.1% and 24.7% | viability, T/C (compound 0.1 µM): 4.77% and 7.08% and 7.51% | viability, T/C (compound 0.316 µM): 5.46% and 6.51% and 7.23% | viability, T/C (compound 1 µM): 6.12% and 6.87% and 8.28% | viability, T/C (compound 3.16 µM): 4.43% and 9.96% and 4.73% | viability, T/C (compound 10 µM): 1.87% and 3.82% and 1.78% | IC50 (curve of compound): < 31.6 nM

COc1cccc(OCCCN)c1-c1cc(Nc2cnc(C#N)cn2)n[nH]1
viability, T/C (compound 0.00316 µM): 75.6% and 100% and 79.2% | viability, T/C (compound 0.01 µM): 60.5% and 80.8% and 75.1% | viability, T/C (compound 0.0316 µM): 14.7% and 28.4% and 65.5% | viability, T/C (compound 0.1 µM): 29.1% and 32.4% and 35.9% | viability, T/C (compound 0.316 µM): 28.6% and 28.5% and 17.2% | viability, T/C (compound 1 µM): 16.6% and 16.5% and 12.6% | IC50 (curve of compound): 13.7 nM and 19.7 nM and 57.5 nM

CCCS(=O)(=O)Nc1ccc(F)c(C(=O)c2c[nH]c3ncc(-c4ccc(Cl)cc4)cc23)c1F
viability, T/C (compound 0.0316 µM): 77.1% and 111% and 98.1% | viability, T/C (compound 0.1 µM): 88.1% and 101% and 79.8% | viability, T/C (compound 0.316 µM): 101% and 93.3% and 103% | viability, T/C (compound 1 µM): 123% and 91.3% and 106% | viability, T/C (compound 3.16 µM): 93.8% and 70.6% and 69.6% | viability, T/C (compound 10 µM): 15.7% and 25% and 19.7% | IC50 (curve of compound): 6050 nM and 5240 nM and 4970 nM
